Reference: BindingDB's records for PubMed 35202969 (Maharishi Markandeshwar (Deemed To Be University), 2022)
pKi: −log10 of the molar value.

Target: CYP3A4 (Homo sapiens, UniProt P08684)
Experiment: Inhibition of CYP3A4 in human liver microsomes using midazolam as substrate
Conditions: probe midazolam

CYP3A4, sequence (P08684 whole entry): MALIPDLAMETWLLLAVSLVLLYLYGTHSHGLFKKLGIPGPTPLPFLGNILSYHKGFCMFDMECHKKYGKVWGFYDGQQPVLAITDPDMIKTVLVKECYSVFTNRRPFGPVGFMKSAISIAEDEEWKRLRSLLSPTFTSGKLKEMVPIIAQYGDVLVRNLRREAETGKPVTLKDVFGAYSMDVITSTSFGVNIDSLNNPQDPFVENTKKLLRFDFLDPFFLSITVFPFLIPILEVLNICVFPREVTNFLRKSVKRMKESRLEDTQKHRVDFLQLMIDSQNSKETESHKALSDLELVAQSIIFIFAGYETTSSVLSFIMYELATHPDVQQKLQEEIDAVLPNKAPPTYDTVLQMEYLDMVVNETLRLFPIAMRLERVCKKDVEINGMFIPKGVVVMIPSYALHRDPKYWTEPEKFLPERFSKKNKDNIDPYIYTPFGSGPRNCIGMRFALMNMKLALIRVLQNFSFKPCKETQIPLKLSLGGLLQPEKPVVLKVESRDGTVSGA

pKi: 4.17
Compound: COc1c(N2CC[C@@H](C3(N)CC3)C2)ccc2c(=O)c(C(=O)O)cn([C@@H]3C[C@@H]3F)c12 [DX-619]
